target: T1, 5-HT1A receptor (Rattus norvegicus, UniProt P19327); experiment: 5-HT1A receptor binding activity in rat hippocampal membrane homogenate (method of B. S. Alexander and M. D. Wood)
T1 construct: rat hippocampal membrane homogenate; from tissue; host or cells: rat hippocampus, membrane homogenate
T1 sequence (P19327 1-422): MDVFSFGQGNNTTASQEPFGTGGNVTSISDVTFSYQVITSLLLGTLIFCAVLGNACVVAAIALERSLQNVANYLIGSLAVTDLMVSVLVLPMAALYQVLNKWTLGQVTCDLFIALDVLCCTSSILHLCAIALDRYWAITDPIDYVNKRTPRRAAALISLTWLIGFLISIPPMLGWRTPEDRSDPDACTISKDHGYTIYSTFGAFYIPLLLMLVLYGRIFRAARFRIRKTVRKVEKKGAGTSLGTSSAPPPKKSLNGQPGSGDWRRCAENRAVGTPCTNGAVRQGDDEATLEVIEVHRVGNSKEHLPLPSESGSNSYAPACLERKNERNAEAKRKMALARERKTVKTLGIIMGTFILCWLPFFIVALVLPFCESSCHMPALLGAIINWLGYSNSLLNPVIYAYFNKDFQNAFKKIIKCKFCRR
Experimental: The compounds of the invention are tested for 5-HT1A receptor binding activity in rat hippocampal membrane homogenate by the method of B. S. Alexander and M. D. Wood, J. Pharm. Pharmacol., 1988, 40, 888-891.

Row | SMILES | IC50
1 | O=C(C(CCN1CCN(c2ccccn2)CC1)c1ccccc1)N1C2CCCC1CC2 (centres unmarked) [Example 8, 1-(8-Aza-bicyclo[3.2.1]oct-8-yl)-2-phenyl-4-[4-(pyridin-2-yl)-piperazin-1-yl]-butan-1-one] | 3.5 nM
2 | COc1ccccc1N1CCN(CCC(C(=O)N2CC3CCC(CC3)C2)c2ccccc2)CC1 (centres unmarked) [Example 15] | 0.58 nM
3 | O=C(C(CCN1CCN(c2cccc3[nH]ccc23)CC1)c1ccccc1)N1CC2CCC(CC2)C1 (centres unmarked) [Example 14, 1-(3-Aza-bicyclo[3.2.2]non-3-yl)-4-[4-(1H-indol-4-yl)-piperazin-1-yl]-2-phenylbutan-1-one] | 1.96 nM
4 | O=C(C(CCN1CCN(c2ncccc2C(F)(F)F)CC1)c1ccccc1)N1C2CCCC1CC2 (centres unmarked) [Example 10] | 17.9 nM
5 | O=C(C(CCN1CCN(c2cccc3[nH]ccc23)CC1)c1ccccc1)N1C2CCCC1CC2 (centres unmarked) [Example 5, 1-(8-Aza-bicyclo[3.2.1]oct-8-yl)-4-[4-(1H-indol-4-yl)-piperazin-1-yl]-2-phenyl-butan-1-one] | 3.73 nM
6 | COc1ccc(F)cc1N1CCN(CCC(C(=O)N2C3CCCC2CC3)c2ccccc2)CC1 (centres unmarked) [Example 2, 1-(8-Aza-bicyclo[3.2.1]oct-8-yl)-4-[4-(5-fluoro-2-methoxy-phenyl)-piperazin-1-yl]-2-phenyl-butan-1-one] | 1.48 nM
7 | COc1ccccc1N1CCN(CCC(C(=O)N2CC3CC=CCC3C2)c2ccccc2)CC1 (centres unmarked) [Example 16, 1-(1,3,3a,4,7,7a-Hexahydroisoindol-2-yl)-4-[4-(2-methoxyphenyl)piperazin-1-yl]-2-phenylbutan-1-one] | 4.46 nM
8 | COc1ccccc1N1CCN(CCC(C(=O)N2C3CCCC2CC3)c2ccccc2)CC1 (centres unmarked) [Example 1, 1-(8-Aza-bicyclo[3.2.1]oct-8-yl)-4-[4-(2-methoxy-phenyl)-piperazin-1-yl]-2-phenyl-butan-1-one] | 3.3 nM

From US5610154A, “Bicyclic carboxamides” (John Wyeth & Brother, Ltd., priority 1994, dated 1997)
